Like-named read-outs stand apart in the source and are kept apart here.
Legend:
[1] = tested on: Hek293 WFS1 over-expressor; assay: In vitro cell viability (CellTiter-Glo), Hek293 WFS1 over-expressor; type: cell-based
Summary of the method: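 HEK293 cells stably overexpressing WFS1 via retroviral transduction (puromycin-selected), with empty-vector cells as counterpart, plated 1,000/well. Compounds added at various concentrations after overnight attachment; viability by CellTiter-Glo luminescence after 96 h, reported as IC50.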

[2] = tested on: Colo205-TCF/LEF-Luciferase (Luc) tumor; assay: In vivo inhibition of TCF/LEF reporter activity in Colo-205 tumors; parameters: concentration or dose not given beside the values; details: TCF/LEF luciferase reporter in Colo-205 tumors, nu/nu mice, oral gavage
Summary of the method: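 Female nu/nu mice carried subcutaneous Colo205-TCF/LEF-luciferase tumours (200–500 mm^3), n=4 per group. Compound was given by oral gavage in 1:3:5:1 EtOH:DMSO:PEG-400:H2O at 10 ml/kg, with vehicle as control. Luciferase activity in tumour lysates (Steady-Glo) was normalised to BCA protein.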

[3] = Homo sapiens, HEK293, Hek293 WFS1 over-expressing cells, read-out: Hek293 WFS1 viability
[4] = Hek293 WFS1 over-expressing cells, read-out: Hek293 WFS1 viability

With `Cc1nc(N[C@H]2C[C@@H](Sc3cc(F)c(F)c(F)c3)C2)nc2c1NC(=O)[C@H](C)N2C` [Compound 332, (7S)-4,7,8-trimethyl-2-((cis-3-((3,4,5-trifluorophenyl)thio)cyclobutyl)amino)-7,8-dihydropteridin-6(5H)-one] the IC50 [1, 3] was < 0.06 µM and the “Percent Remaining Activity at 8 hrs after Dosing” value (“Percent Remaining Activity” below) [2] was 51%.
With `Cc1nc(NCc2cnn(Cc3ccc(C(F)(F)F)nc3[C@@H](C)O)c2)nc2c1NC(=O)[C@H](C)N2C` (single isomer, unassigned) [Compound 420] the IC50 [1, 3] was 0.06 to 0.6 µM and the “Percent Remaining Activity” value [2] was 28%.
In the case of `Cc1nc(NCc2cnn(Cc3ccc(C(F)(F)F)nc3)c2)nc2c1NC(=O)C1(CCC1)N2C` [Compound 398, 4′,8′-dimethyl-2′-(((1-((6-(trifluoromethyl)pyridin-3-yl)methyl)-1H-pyrazol-4-yl)methyl)amino)-5′,8′-dihydro-6′H-spiro[cyclobutane-1,7′-pteridin]-6′-one], the IC50 [1, 3] is reported as < 0.06 µM and the “Percent Remaining Activity” value [2] is reported as 83%.
`Cc1nc(NCc2cnn(Cc3cc(C(F)(F)F)nn3C)c2)nc2c1NC(=O)[C@H](C)N2C` [Compound 160, (7S)-4,7,8-trimethyl-2-(((1-((1-methyl-3-(trifluoromethyl)-1H-pyrazol-5-yl)methyl)-1H-pyrazol-4-yl)methyl)amino)-7,8-dihydropteridin-6(5H)-one] was tested, and the IC50 [1, 3] was < 0.06 µM and the “Percent Remaining Activity” value [2] was 18%.
For `Cc1nc(N[C@H]2CC[C@H](Oc3ccc(C(F)(F)F)nc3)C2)nc2c1NC(=O)[C@H](C)N2C` (single isomer, unassigned) [Compound 377], the IC50 [1, 4] was < 0.06 µM and the “Percent Remaining Activity” value [2] was 33%.
With `Cc1nc(NCc2cnn(Cc3ccnc(C(F)(F)F)c3)c2)nc2c1NC(=O)[C@H](C)N2C` [Compound 207, (7S)-4,7,8-trimethyl-2-(((1-((2-(trifluoromethyl)pyridin-4-yl)methyl)-1H-pyrazol-4-yl)methyl)amino)-7,8-dihydropteridin-6(5H)-one] the IC50 [1, 3] was < 0.06 µM and the “Percent Remaining Activity” value [2] was 18%.
`Cc1nc(N[C@H]2C[C@H](Oc3cc(F)c(F)c(F)c3)C2)nc2c1NC(=O)[C@H](C)N2C` [Compound 246, (7S)-4,7,8-trimethyl-2-((trans-3-(3,4,5-trifluorophenoxy)cyclobutyl)amino)-7,8-dihydropteridin-6(5H)-one] was tested, and the IC50 [1, 3] was < 0.06 µM and the “Percent Remaining Activity” value [2] was 18%.
For `Cc1nc(C(F)(F)F)ccc1Cn1cc(CNc2nc(C)c3c(n2)N(C)[C@@H](C)C(=O)N3)cn1` [Compound 188, (S)-4,7,8-trimethyl-2-(((1-((2-methyl-6-(trifluoromethyl)pyridin-3-yl)methyl)-1H-pyrazol-4-yl)methyl)amino)-7,8-dihydropteridin-6(5H)-one], the IC50 [1, 3] was < 0.06 µM and the “Percent Remaining Activity” value [2] was 15%.
With `COc1c(F)cc(Cn2cc(CNc3nc(C)c4c(n3)N(C)[C@@H](C)C(=O)N4)cn2)cc1F` [Compound 46, (7S)-2-(((1-(3,5-difluoro-4-methoxybenzyl)-1H-pyrazol-4-yl)methyl)amino)-4,7,8-trimethyl-7,8-dihydropteridin-6(5H)-one] the IC50 [1, 3] was < 0.06 µM and the “Percent Remaining Activity” value [2] was 20%.
For `Cc1nc(N[C@H]2C[C@H](Oc3ccc(C(F)(F)F)nc3)C2)nc2c1NC(=O)[C@H](C)N2C` [Compound 324, (7S)-4,7,8-trimethyl-2-((trans-3-((6-(trifluoromethyl)pyridin-3-yl)oxy)cyclobutyl)amino)-7,8-dihydropteridin-6(5H)-one], the IC50 [1, 3] was < 0.06 µM and the “Percent Remaining Activity” value [2] was 16%.
In the case of `CCN1c2nc(NCc3cnn(Cc4ccc(C(F)(F)F)nc4)c3)nc(C)c2NC(=O)[C@@H]1C` [Compound 395, (7S)-8-Ethyl-4,7-dimethyl-2-(((1-((6-(trifluoromethyl)pyridin-3-yl)methyl)-1H-pyrazol-4-yl)methyl)amino)-7,8-dihydropteridin-6(5H)-one], the IC50 [1, 3] is reported as < 0.06 µM and the “Percent Remaining Activity” value [2] is reported as 19%.
In the case of `Cc1nc(NCc2cnn(Cc3ccc(C(F)(F)F)nc3)c2)nc2c1NC(=O)[C@H](C(C)C)N2C` [Compound 383, (7S)-7-isopropyl-4,8-dimethyl-2-(((1-((6-(trifluoromethyl)pyridin-3-yl)methyl)-1H-pyrazol-4-yl)methyl)amino)-7,8-dihydropteridin-6(5H)-one], the IC50 [1, 3] is reported as < 0.06 µM and the “Percent Remaining Activity” value [2] is reported as 36%.
For `Cc1nc(NCc2cnn(Cc3ccc(C(F)(F)F)nc3C(C)C)c2)nc2c1NC(=O)[C@H](C)N2C` [Compound 388, (7S)-2-(((1-((2-isopropyl-6-(trifluoromethyl)pyridin-3-yl)methyl)-1H-pyrazol-4-yl)methyl)amino)-4,7,8-trimethyl-7,8-dihydropteridin-6(5H)-one], the IC50 [1, 3] was < 0.06 µM and the “Percent Remaining Activity” value [2] was 13%.
In the case of `Cc1ncc(Cn2cc(CNc3nc(C)c4c(n3)N(C)[C@@H](C(C)C)C(=O)N4)cn2)cc1F` [Compound 425, (7S)-2-(((1-((5-fluoro-6-methylpyridin-3-yl)methyl)-1H-pyrazol-4-yl)methyl)amino)-7-isopropyl-4,8-dimethyl-7,8-dihydropteridin-6(5H)-one], the IC50 [1, 3] is reported as 0.06 to 0.6 µM and the “Percent Remaining Activity” value [2] is reported as 29%.
`Cc1nc(NCc2cnn(Cc3cc(C(F)(F)F)nn3C)c2)nc2c1NC(=O)[C@H](C1CC1)N2C` [Compound 396, (7S)-7-Cyclopropyl-4,8-dimethyl-2-(((1-((1-methyl-3-(trifluoromethyl)-1H-pyrazol-5-yl)methyl)-1H-pyrazol-4-yl)methyl)amino)-7,8-dihydropteridin-6(5H)-one] was tested, and the IC50 [1, 3] was < 0.06 µM and the “Percent Remaining Activity” value [2] was 23%.
With `Cc1nc(NCc2cnn(Cc3ccc(C(F)(F)F)nc3)c2)nc2c1NC(=O)[C@H](C)N2C` [Compound 136, (7S)-4,7,8-trimethyl-2-(((1-((6-(trifluoromethyl)pyridin-3-yl)methyl)-111-pyrazol-4-yl)methyl)amino)-7,8-dihydropteridin-6(5H)-one] the IC50 [1, 4] was < 0.06 µM, the IC50 ([1]; cell viability, Hek293 WFS1 over-expressor, read-out: IC50) was 0.03 µM and the IC50 ([1]; cell viability, Hek293 WFS1 over-expressor, read-out: IC50 class) was < 0.06 µM. For the same molecule, the “reduction in the IC50 on over-expression of WFS1 in Hek293 cells” value ([1]; cell viability, WFS1 over-expressor vs empty vector) was > 1000 fold and the “Percent Remaining Activity” value [2] was 24%.
For `Cc1nc(NCc2cnn(Cc3ccc(F)cc3)c2)nc2c1NC(=O)[C@H](C)N2C` [Compound 4, (7S)-2-(((1-(4-fluorobenzyl)-1H-pyrazol-4-yl)methyl)amino)-4,7,8-trimethyl-7,8-dihydropteridin-6(5H)-one], the IC50 [1, 3] was < 0.06 µM and the “Percent Remaining Activity” value [2] was 23%.
For `Cc1nc(N[C@H]2C[C@@H](COc3cc(F)c(F)c(F)c3)C2)nc2c1NC(=O)[C@H](C)N2C` [Compound 257, (7S)-4,7,8-Trimethyl-2-((cis-3-((3,4,5-trifluorophenoxy)methyl)cyclobutyl)-amino)-7,8-dihydropteridin-6(5H)-one], the IC50 [1, 3] was < 0.06 µM and the “Percent Remaining Activity” value [2] was 30%.
For `Cc1nc(NCc2cnn([C@@H](C)c3ccc(C(F)(F)F)nc3)c2)nc2c1NC(=O)[C@H](C)N2C` [Compound 174, (7S)-4,7,8-Trimethyl-2-(((1-((S)-1-(6-(trifluoromethyl)pyridin-3-yl)ethyl)-1H-pyrazol-4-yl)methyl)amino)-7,8-dihydropteridin-6(5H)-one], the IC50 [1, 3] was < 0.06 µM and the “Percent Remaining Activity” value [2] was 22%.
For `Cc1nc(NCc2cnn(Cc3ccc(C(F)(F)F)nc3)c2)nc2c1NC(=O)[C@H](C)N2C(C)C` [Compound 385, (7S)-8-isopropyl-4,7-dimethyl-2-(((1-((6-(trifluoromethyl)pyridin-3-yl)methyl)-1H-pyrazol-4-yl)methyl)amino)-7,8-dihydropteridin-6(5H)-one], the IC50 [1, 3] was < 0.06 µM and the “Percent Remaining Activity” value [2] was 25%.
In the case of `Cc1nc(NCc2cnn(Cc3ccc(Cl)nc3)c2)nc2c1NC(=O)[C@H](C(C)C)N2C` [Compound 409, (7S)-2-(((1-((6-chloropyridin-3-yl)methyl)-1H-pyrazol-4-yl)methyl)amino)-7-isopropyl-4,8-dimethyl-7,8-dihydropteridin-6(5H)-one], the IC50 [1, 3] is reported as < 0.06 µM and the “Percent Remaining Activity” value [2] is reported as 27%.

Source: patent US20230312587A1, “PTERIDINONE COMPOUNDS AND USES THEREOF” (Vertex Pharmaceutical Incorporated, priority 2018, published 2023)
